The results in this text go back to patent publication US20100112089A1, “PEPTIDE COMPOUND AND USE THEREOF” (Takeda Pharmaceutical Company Limited, priority 2008, published 2010).

Experiment [1] relates to NCI-H226 subcutaneous xenograft tumor. The experiment in a line: Subcutaneous tumor xenograft model. It is filed as in vivo, SCID mice. The conditions noted are these: cisplatin 9 mg/kg. The protocol:
A suspension of NCI-H226 cells was injected subcutaneously into the flanks of six weeks old male severe […] combined immune deficiency (SCID) mice (Charles River Lab., Wilmington, Mass.). The size of tumors was measured three times a week using a caliper. The volumes were calculated using the following formula: volume (cm^3)=[width^2 (mm)×length (mm)]/2000. The relative tumor volume was expressed as the Vt/V0 index, where Vt is the tumor volume on a measured day, and V0 is the volume of the same tumor just before the first treatment. Mean relative tumor sizes with standard error of mean, SEM, were plotted. Body weight was measured three times weekly from the first treatment, and the weight change was expressed as a percentage of the initial weight. Animals were housed in accordance with guidelines from the Association for the Assessment and Accreditation of Laboratory Animal Care International, and the protocols were approved by the institutional animal care committee of CanBas Co., Ltd.
The statistical significance of the differences of the relative tumor volume between groups was determined by Student's t tests.

Experiment [2] concerns NCI-H226 cells. Kind of experiment: Confocal immunofluorescence analysis of damage foci. The class given is cell-based. The conditions noted are these: bleomycin at 0.4 μg/ml alone. The protocol: The cells were fixed in ice-cold methanol at −20° C. for 20 min, and blocked with PBS containing 5% BSA for 45 min. Cells were then incubated with anti-γ-H2AX, anti-ATM p-Ser1981, anti-DNA-PKcs p-Thr2609, anti-NBS1 p-Ser343, or anti-SMC1 p-Ser957 antibodies overnight at 4° C., followed by incubation with Alexa 594-conjugated secondary antibody (Invitrogen, Carlsbad, Calif.) for 1 hr at room temperature in the dark. Cell nuclei were stained using Hoechst 33342. Fluorescence was visualized and analyzed using Becton Dickinson Pathway450. The intensity of the nuclei and number of foci was assessed by ATTOVision and IPLab software (Becton Dickinson), respectively.

Experiment [3] concerns NCI-H226 cells. The class given is cell-based. The conditions noted are these: bleomycin 2 μg/ml alone. The protocol: The cells were harvested and lysed in a lysis buffer [50 mM Tris-HCl (pH 8.0), 5 mM EDTA (pH 8.0), 100 mM NaCl, 0.5% NP-40, 2 mM DTT, 50 mM NaF, 1 mM Na3VO4, 1 μM microcystin, proteinase inhibitors cocktail (Roche, Mannheim, Germany)] for 30 min on ice and the lysates were clarified by centrifugation at 15,000 rpm for 20 min at 4° C. Protein concentration of the supernatants was evaluated using a detergent-compatible protein assay kit (Bio-Rad, Hercules, Calif.) according to the manufacturer's instructions. Whole cell lysates (60 μg) were run on a 10-12% SDS-PAGE gel, and transferred onto polyvinylidene difluoride (PVDF) membranes (Bio-Rad). The membrane was blocked at room temperature for 1 hr in TBST (0.1% Tween 20 in TBS) containing 2% ECL Advance Blocking Reagent (GE healthcare, Waukesha, Wis.) and incubated with primary antibody overnight at 4° C. The membrane was incubated with anti-peroxidase conjugated secondary antibody (Cell Signaling) for 1 hr at room temperature and analyzed using the enhanced chemiluminescence detection system (ECL Advance Western Blotting Detection Kit, GE healthcare).

With `N.N.[Cl][Pt][Cl]` [cisplatin], the tumor growth entry in experiment [1] was “suppressed tumor growth”.
With bleomycin, the “foci formation (γ-H2AX, NBS1 p-Ser343, ATM p-Ser1981, SMC1 p-Ser957)” value in the experiment on NCI-H226 cells [2] was “only marginally increased foci formation”. In the experiment on NCI-H226 cells [3], the “phosphorylation of ATM (Ser1981), H2AX, CHK1 (Ser317), CHK2 (Thr68)” value is recorded as “induced phosphorylation”.
